Results: US12729368B2, “Methods and compositions for generating oligodendrocyte progenitor cells” (Trailhead Biosystems Inc., priority 2022, dated 2026)
Several values for one entry are separate records, joined by “and”; a condition that tells them apart may be missing. Equal entries are not always repeated.

Assays:
Format in all cases: cell-based, human
[1] = test system: pre-OPCs; assay: HD-DoE 12-factor model for stage 2 (version 1), 3 days on stage 1 pre-OPCs; details: for factor contribution: optimized for maximum expression of OLIG2 at 1841.6
How it was run: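 Cells grown first in stage 1 medium were treated for 3 days with combinations of 8 or 12 factors, including FGF, TGF-b, WNT, RA, AKT, SHH, mTOR and PKC pathway modulators. Gene expression was modelled and maximized for OLIG2, with NKX2-2, SOX10, OLIG1 and PDGFRa tracked by dynamic profile analysis.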

[2] = test system: stage 2 early-OPCs; assay: HD-DoE 12-factor model for stage 3 (version 1) on stage 2 early-OPCs; details: positive
Protocol: In another model, the effects of Activin A and TTNPB along with LDN193189, MHY1485, PDGF-AA, AICAR, FGF2, CHIR99021, DBZ, MK2206, Purmorphamine and T3+T4 were tested on gene profile of differentiating cells. When this model was optimized for maximum expression of SOX10 at 54.7, we observed Activin A again had positive regulatory impact on its expression, with factor contribution of 4.7. Other positive factors included MK2206, with the highest factor contribution at 16.2, MHY1485 at 11.49, CHIR99021 at 9.6, DBZ at 9.3, FGF2 at 3.6 and PDGF-AA, with factor contribution less than 3 (FIG. 20).
In this model, we also investigated the conditions of expression of another important OPC gene, CSPG4 (Goldman and Kuypers (2015) Development 142:3983-95: van Tilborg et al. (2018) Glia 66:221-238).
Dynamic profile analysis was used to better assess the impact of the factors on our selected genes and find the combination set that can optimize their expression (FIG. 22). According to this analysis, even though Activin A has a positive effect on SOX10, it decreases level of PDGFRa and OLIG1. […] Moreover, SOX10 is one of the main transcription factors of oligodendrocytes, along with OLIG2 and NKX2-2, that has shown the potential to commit the stem cells to oligodendrocytes in reprogramming efforts (Wang et al. (2014) Proc Natl Acad Sci USA 111:E2885-94; Garciá-León et al. (2018) Stem Cell Reports 10:655-672). […] One of the main challenges of differentiating cells to oligodendrocyte fate is controlling the mixed population and increasing the purity of the culture by committing more cells to oligodendrocyte over neuronal identity. Therefore, DBZ was excluded from the final recipe.
At this point, we investigated the expression profile of a larger group of genes defining oligodendrocyte progenitor population at a later stage, including ID2, CNP and BCAN (Perlman et al. (2020). Glia 68:1291-1303; Goldman and Kuypers (2015) Development 142:3983-95). In this model, these genes were expressed at 1900, 660 and 44, respectively.

[3] = test system: cells cultured in stage 1 and stage 2 differentiation media; assay: HD-DoE 8-factor model for stage 3 (version 2); details: for factor contribution: positive

Compound | factor contribution ([1]; positive regulatory effect) | factor contribution ([2]; optimized for maximum expression of SOX10 at 54.7) | effect on late OPC genes and neuronal genes ([3]; factor plots vs concentration) | factor contribution ([3]; optimized for SOX10 at 41.04) | effect on expression of SOX10 ([1]; dynamic profile, model maximized for OLIG2) | factor contribution ([1]; negative impact) | factor contribution ([2]; optimized for maximum expression of CSPG4 at 38.6) | factor contribution ([3]; optimized for maximum expression of PDGFRa at 853.4)
FGF2: FGF pathway activator, an FGFR agonist | 12.9 | 3.6 | increased the expression levels of OPC genes while decreasing the expression levels of neuronal genes | 15.3 | – | – | – | –
c1ccc2c(Oc3nc(Nc4ccc(N5CCOCC5)cc4)c4ncn(C5CCCCC5)c4n3)cccc2c1 [Purmorphamine] | – | – | – | – | positively regulate | 7.2 | 10.3 | 20.6 and 20.61
